Source: US11572359B2, “PARP/PI3K double-target inhibit containing pyridopyrimidine structure” (CHINA PHARMACEUTICAL UNIVERSITY, priority 2017, dated 2023)
Like-named read-outs stand apart in the source and are kept apart here.

Columns and labels:
PARP-1 = PARP-1 (Homo sapiens, UniProt P09874); experiment: PARP-1 inhibitory activity at the enzyme level (histone-coated plate, chemiluminescence); assay type: biochemical; settings: for inhibition at 0.01 µM: 10 nM compound, read-out: Inhibition rate on PARP-1 (10 nM)
Method: Experimental method for PARP-1 inhibitory activity: taking out a 96-well plate pre-coated with histones, and adding a following enzyme reaction system and inhibitors of different concentrations into each well, including: 50 μL of a reaction buffer solution (Tris*HCl, pH 8.0), NAD^+, biotin-labeled activated DNA, PARP-1 enzyme, and an inhibitor; after reaction at a room temperature for 1 hour, adding 50 uL of avidin-labeled HRP into each well for reaction for 30 minutes; and then adding 100 μL of an HRP substrate, and detecting a chemiluminescence value on a SpectraMax M instrument. The percentage of enzyme activity is calculated by the following formula: Enzyme activity percentage (%)=(OD value administration hole-OD value background)/(OD value control hole−OD value background)×100%
(§1) Method for determining IC50 of PARP-1 and PI3Kα: diluting a drug concentration according to a three-fold concentration gradient, and detecting two duplicate wells at each concentration; taking the drug concentration as the abscissa and the percentage of enzyme activity corresponding to each concentration as the ordinate, and calculating to obtain inhibition IC50 values of all tested compounds by using Graphpad Prism5 for nonlinear regression.

PI3Kα = PI3Kα (Homo sapiens, UniProt P42336); experiment: PI3Kα inhibitory activity at the enzyme level (ADP detection by luciferase method); assay type: biochemical; settings: for inhibition at 0.1 µM: 100 nM compound, read-out: Inhibition rate on PI3Kα (100 nM)
Method: Experimental method for PI3Kα inhibitory activity: simultaneously adding 40 mM Tris, pH 7.4, 10 mM MgCl2, 0.1 mg/ml BSA, 1 mM DTT, 10 μM ATP, PI3Kα kinase and a kinase substrate into different concentrations of compounds to be sieved to form a 50 μL reaction system, after reaction at 30° C. for 40 minutes, detecting an ADP content in the system through a luciferase method, and then after reaction for 5 minutes, detecting a chemiluminescence signal on an MD-SpectraMax M5 multi-function microplate reader, wherein the intensity of a value of the chemiluminescence signal is in direct proportion to […]. The detected value of the chemiluminescence signal is substituted into the following formula: Enzyme activity percentage (%)=(OD value administration hole-OD value background)/(OD value control hole−OD value background)×100%
as §1

[1] = tested on: HCC1937 (human breast cancer cells); experiment: Tumor cell proliferation inhibition (SRB, 72 hours), HCC1937; assay type: cell-based
Method: (§2) Inoculating HCT116 (human colon cancer cells), HCC1937 (human breast cancer cells), MDA-MB-231 (human breast cancer cells) and MDA-MB-468 (human breast cancer cells) in a logarithmic growth phase with a certain quantity in a 96-well plate (200 μL/well) for culture for 24 hours so as to adhere to walls and then adding drugs. Arranging 3 duplicate wells for each drug concentration, and setting corresponding zero-cut holes and blank controls. After 72 hours of drug action, adding 50% TCA (50 μL/well) into adherent cells, fixing at 4° C. for 1 hour, pouring a fixing solution, washing for 5 times with distilled water, and naturally drying. Adding 100 μL of 4 mg/mL SRB into each well, staining at a room temperature for 15 minutes, discarding, washing for 5 times with 1% glacial acetic acid, and naturally drying. Finally, adding 150 μL of a 10 mM Tris solution into each well, shaking to be uniform, and measuring OD values at a wavelength of 565 nm using a wavelength-adjustable microplate reader (VERSAmax™, Molecular Device).

[2] = tested on: MDA-MB-468 (human breast cancer cells); experiment: Tumor cell proliferation inhibition (SRB, 72 hours), MDA-MB-468; assay type: cell-based
Method: as §2

[3] = tested on: Human Breast Cancer MDA-MB-468 Cell Nude Mice Xenograft; experiment: Growth of human breast cancer MDA-MB-468 cell nude mice xenograft; assay type: in vivo; settings: for Tumor Volumes / Tumor weights: abdominal cavity, once every 2 days; for Anti-tumor effect compared with the combination group olaparib (50 mg/kg)/BKM120 (27.5 mg/kg) (in words): p<0.05; for Inhibition of the growth of the MDA-MB-468 nude mice xenografts (in words) / Inhibition rate compared with positive drugs olaparib and BKM120 (in words): I-1 50 mg/kg, 1-3 50 mg/kg, olaparib 50 mg/kg/BKM120 27.5 mg/kg; for Tumor weights: after 34 days, in g (unit assumed)
Method: Preparing an MDA-MB-468 cell line in a logarithmic growth phase into a 2×10^7/mL cell suspension under sterile conditions, and inoculating 0.1 mL of the cell suspension under the skin of the right axilla of each nude mouse. Measuring the diameter of a nude mice xenograft with a vernier caliper, and randomly dividing the animals into groups after the tumors grew to about 100 mm^3. Dynamically observing an anti-tumor effect of the tested animals using a method of measuring the tumor diameter, wherein the frequency of measurements of the tumor diameter is once every 2 days, and the administration volume is 0.4 mL/20 g. After 34 days, killing the mice and surgically removing and weighing tumor pieces. The formula for calculating tumor volume (TV) is: TV=½×a×b^2, wherein a and b represent the length and the width respectively.

[4] = tested on: HCT116 (human colon cancer cells); experiment: Tumor cell proliferation inhibition (SRB, 72 hours), HCT116; assay type: cell-based
Method: as §2

[5] = tested on: MDA-MB-231 (human breast cancer cells); experiment: Tumor cell proliferation inhibition (SRB, 72 hours), MDA-MB-231; assay type: cell-based
Method: as §2

[6] = 12 days, 50 mg/kg (I-1: medium)
[7] = 18 days, 50 mg/kg (I-1: medium)
[8] = 24 days, 50 mg/kg (I-1: medium)
[9] = 30 days, 50 mg/kg (I-1: medium)
[10] = 34 days, 50 mg/kg (I-1: medium)

Chain of PI3Kα (P42336 whole entry): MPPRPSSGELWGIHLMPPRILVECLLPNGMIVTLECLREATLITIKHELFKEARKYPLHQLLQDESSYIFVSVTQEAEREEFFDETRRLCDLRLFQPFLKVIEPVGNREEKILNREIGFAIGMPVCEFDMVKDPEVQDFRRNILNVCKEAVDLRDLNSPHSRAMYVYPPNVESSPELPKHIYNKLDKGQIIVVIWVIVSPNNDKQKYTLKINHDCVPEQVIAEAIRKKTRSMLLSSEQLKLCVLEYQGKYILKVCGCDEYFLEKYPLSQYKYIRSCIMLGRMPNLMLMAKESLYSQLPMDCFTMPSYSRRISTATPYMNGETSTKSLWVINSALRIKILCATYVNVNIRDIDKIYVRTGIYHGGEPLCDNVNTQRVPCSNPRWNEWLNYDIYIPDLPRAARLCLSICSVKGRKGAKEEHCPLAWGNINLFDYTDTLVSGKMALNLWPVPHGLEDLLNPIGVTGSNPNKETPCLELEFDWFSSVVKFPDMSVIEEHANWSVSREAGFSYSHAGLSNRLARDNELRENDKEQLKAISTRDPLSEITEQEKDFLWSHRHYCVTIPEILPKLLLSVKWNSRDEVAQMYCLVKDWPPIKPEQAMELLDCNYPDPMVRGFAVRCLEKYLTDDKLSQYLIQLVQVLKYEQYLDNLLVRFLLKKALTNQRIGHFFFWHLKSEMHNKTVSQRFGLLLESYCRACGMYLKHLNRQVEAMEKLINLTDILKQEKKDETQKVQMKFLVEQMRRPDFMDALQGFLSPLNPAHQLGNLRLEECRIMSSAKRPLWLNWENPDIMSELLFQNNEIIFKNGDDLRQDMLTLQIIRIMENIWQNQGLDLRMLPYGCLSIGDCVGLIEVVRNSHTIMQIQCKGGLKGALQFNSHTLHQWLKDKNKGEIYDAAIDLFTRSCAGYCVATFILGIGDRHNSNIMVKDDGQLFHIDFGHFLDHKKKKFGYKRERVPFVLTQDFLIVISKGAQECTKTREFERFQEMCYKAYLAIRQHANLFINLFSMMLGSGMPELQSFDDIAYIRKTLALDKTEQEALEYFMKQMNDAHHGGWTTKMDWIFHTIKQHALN
Chain of PI3Kα (P27986 whole entry partner): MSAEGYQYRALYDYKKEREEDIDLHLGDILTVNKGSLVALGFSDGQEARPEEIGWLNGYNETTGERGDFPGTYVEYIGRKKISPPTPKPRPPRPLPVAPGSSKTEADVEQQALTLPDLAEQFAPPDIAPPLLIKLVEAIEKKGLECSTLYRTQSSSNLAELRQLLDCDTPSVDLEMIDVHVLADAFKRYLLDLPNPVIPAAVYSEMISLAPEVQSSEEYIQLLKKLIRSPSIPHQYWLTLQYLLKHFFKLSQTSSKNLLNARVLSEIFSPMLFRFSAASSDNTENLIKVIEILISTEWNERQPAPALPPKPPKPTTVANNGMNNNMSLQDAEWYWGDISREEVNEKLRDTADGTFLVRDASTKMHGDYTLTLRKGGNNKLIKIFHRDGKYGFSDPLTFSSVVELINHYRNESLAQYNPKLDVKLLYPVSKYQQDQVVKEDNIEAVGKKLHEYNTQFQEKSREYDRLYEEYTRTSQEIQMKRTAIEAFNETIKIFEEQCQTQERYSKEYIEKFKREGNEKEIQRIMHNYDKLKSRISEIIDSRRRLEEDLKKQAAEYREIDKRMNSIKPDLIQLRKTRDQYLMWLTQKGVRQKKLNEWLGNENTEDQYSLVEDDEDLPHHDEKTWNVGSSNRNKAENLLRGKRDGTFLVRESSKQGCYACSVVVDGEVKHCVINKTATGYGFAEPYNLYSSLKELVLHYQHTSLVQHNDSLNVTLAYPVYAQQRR
Chain of PARP-1 (P09874 whole entry): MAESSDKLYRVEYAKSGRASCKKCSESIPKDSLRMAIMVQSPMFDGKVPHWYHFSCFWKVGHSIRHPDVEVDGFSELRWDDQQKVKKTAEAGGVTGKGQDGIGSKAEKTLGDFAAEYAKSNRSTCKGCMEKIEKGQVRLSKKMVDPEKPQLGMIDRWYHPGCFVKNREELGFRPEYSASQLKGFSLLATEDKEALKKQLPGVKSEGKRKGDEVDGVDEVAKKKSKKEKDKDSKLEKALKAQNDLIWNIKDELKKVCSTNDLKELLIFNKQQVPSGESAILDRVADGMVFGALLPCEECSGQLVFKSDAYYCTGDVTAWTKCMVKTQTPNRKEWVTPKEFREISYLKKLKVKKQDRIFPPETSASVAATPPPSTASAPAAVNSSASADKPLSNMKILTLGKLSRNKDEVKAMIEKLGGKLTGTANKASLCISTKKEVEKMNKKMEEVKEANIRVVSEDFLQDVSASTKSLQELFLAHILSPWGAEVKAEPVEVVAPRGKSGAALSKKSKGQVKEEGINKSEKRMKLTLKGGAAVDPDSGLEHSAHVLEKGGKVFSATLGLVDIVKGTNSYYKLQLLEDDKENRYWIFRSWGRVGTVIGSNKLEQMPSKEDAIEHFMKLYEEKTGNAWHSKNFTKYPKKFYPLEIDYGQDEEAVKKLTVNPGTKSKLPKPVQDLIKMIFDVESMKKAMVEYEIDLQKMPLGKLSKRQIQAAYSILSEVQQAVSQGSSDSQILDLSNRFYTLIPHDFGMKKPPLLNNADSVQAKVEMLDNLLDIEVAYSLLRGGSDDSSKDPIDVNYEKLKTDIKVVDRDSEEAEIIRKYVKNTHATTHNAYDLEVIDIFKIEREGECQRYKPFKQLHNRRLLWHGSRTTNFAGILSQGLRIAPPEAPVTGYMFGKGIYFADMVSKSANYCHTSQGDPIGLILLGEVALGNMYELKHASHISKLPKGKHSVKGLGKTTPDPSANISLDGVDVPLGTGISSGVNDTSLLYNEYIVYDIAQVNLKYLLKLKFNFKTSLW

Row | IC50 (PARP-1) [nM] | inhibition at 0.01 µM (PARP-1) [%] | IC50 (PI3Kα) [nM] | inhibition at 0.1 µM (PI3Kα) [%] | IC50 [1] [nM] | IC50 [2] [nM] | IC50 ([2]; Homo sapiens, MDA-MB-468, 72 h) [nM] | IC50 ([4]; Homo sapiens, HCT-116, 72 h) [nM] | IC50 ([1]; Homo sapiens, HCC1937, 72 h) [nM] | IC50 ([5]; Homo sapiens, MDA-MB-231, 72 h) [nM] | SMILES | Tumor Volumes ([3]; 0 day, 50 mg/kg (I-1: medium)) [mm^3] | Anti-tumor effect compared with the combination group olaparib (50 mg/kg)/BKM120 (27.5 mg/kg) (in words) ([3]; 50 mg/kg) | Tumor Volumes ([3]; 6 days, 50 mg/kg (I-1: medium)) [mm^3] | Tumor Volumes [3, 6] [mm^3] | Tumor Volumes [3, 7] [mm^3] | Tumor Volumes [3, 8] [mm^3] | Tumor Volumes [3, 9] [mm^3] | Tumor Volumes [3, 10] [mm^3] | Inhibition of the growth of the MDA-MB-468 nude mice xenografts (in words) [3] | Inhibition rate compared with positive drugs olaparib and BKM120 (in words) [3] | other results
1 | 3.75 | 81 | 69 | 66 | 81 | 909 | < 1000 |  |  |  | Nc1ncc(-c2nc3c(c(N4CCOCC4)n2)CCN(C(=O)c2cc(Cc4n[nH]c(=O)c5ccccc45)ccc2F)C3)cn1 [I-1, 4-(3-(2-(2-aminopyrimidin-5-yl)-4-morpholinyl-5,6,7,8-tetrahydropyrido [3,4-d]pyrimidin-7-formyl)-4-fluorobenzyl) phthalazin-1(2H)-one] | 94.95 | obviously superior | 136.45 | 222.15 | 301.78 | 399.10 | 489.89 | 551.70 | significantly inhibit the growth | higher | Tumor Volumes ([3]; 0 day, high, 100 mg/kg): 93.30 mm^3; Tumor Volumes ([3]; 0 day, low, 25 mg/kg): 96.16 mm^3; Dose dependence of tumor growth inhibition (in words) ([3]; 25, 50, 100 mg/kg): dose-dependent manner; Tumor Volumes ([3]; 6 days, high, 100 mg/kg): 122.80 mm^3; Tumor Volumes ([3]; 6 days, low, 25 mg/kg): 205.61 mm^3; Tumor Volumes ([3]; 12 days, high, 100 mg/kg): 145.60 mm^3; Tumor Volumes ([3]; 12 days, low, 25 mg/kg): 303.37 mm^3; Tumor Volumes ([3]; 18 days, high, 100 mg/kg): 186.00 mm^3; Tumor Volumes ([3]; 18 days, low, 25 mg/kg): 401.23 mm^3; Tumor Volumes ([3]; 24 days, high, 100 mg/kg): 209.30 mm^3; Tumor Volumes ([3]; 24 days, low, 25 mg/kg): 555.25 mm^3; Tumor Volumes ([3]; 30 days, high, 100 mg/kg): 234.10 mm^3; Tumor Volumes ([3]; 30 days, low, 25 mg/kg): 707.38 mm^3; Tumor Volumes ([3]; 34 days, high, 100 mg/kg): 250.00 mm^3; Tumor Volumes ([3]; 34 days, low, 25 mg/kg): 808.40 mm^3; Tumor weights ([3]; 50 mg/kg (I-1: medium)): 0.54; Tumor weights ([3]; high, 100 mg/kg): 0.34; Tumor weights ([3]; low, 25 mg/kg): 0.85
2 | 0.395 | 93 | 130 | 66 |  |  | 1340 | 217 | 121 | 816 | Nc1ccc(-c2nc3c(c(N4CCOCC4)n2)CCN(C(=O)c2cc(Cc4n[nH]c(=O)c5ccccc45)ccc2F)C3)cn1 [I-2, 4-(3-(2-(6-aminopyridin-3-yl)-4-morpholinyl-5,6,7,8-tetrahydropyrido[3,4-d]pyrimidin-7-formyl)-4-fluorobenzyl)phthalazin-1(2H)-one] |  |  |  |  |  |  |  |  |  |  | 
3 | 4.9 | 55 | 194 | 34 | 504 | 266 |  | < 1000 | < 1000 |  | Nc1cc(C(F)(F)F)c(-c2nc3c(c(N4CCOCC4)n2)CCN(C(=O)c2cc(Cc4n[nH]c(=O)c5ccccc45)ccc2F)C3)cn1 [I-3, 4-(3-(2-(6-amino-4-(trifluoromethyl)pyridin-3-yl)-4-morpholinyl-5,6,7,8-tetrahydropyrido [3,4-d]pyrimidin-7-formyl)-4-fluorobenzyl)phthalazin-1(2H)-one] | 93.00 | obviously superior | 142.00 | 190.90 | 216.60 | 241.50 | 280.80 | 310.10 | significantly inhibit the growth | higher | IC50 [4]: 775 nM; IC50 [5]: 155 nM; Anti-tumor effect, ranking among the groups (in words) ([3]; 50 mg/kg): optimal; Tumor weights ([3]; 50 mg/kg (I-1: medium)): 0.44
4 |  | 91 |  | 42 |  |  | 1150 | 536 | 482 | 708 | O=C(c1cc(Cc2n[nH]c(=O)c3ccccc23)ccc1F)N1CCc2c(nc(-c3cccc4[nH]ncc34)nc2N2CCOCC2)C1 [I-8, 4-(3-(2-(1H-indazole-4-yl)-4-morpholinyl-5,6,7,8-tetrahydropyrido[3,4-d]pyrimidin-7-formyl)-4-fluorobenzyl)phthalazin-1(2H)-one] |  |  |  |  |  |  |  |  |  |  | 
5 | 0.376 | 94 | 29.8 | 67 |  | 738 | < 1000 |  |  |  | C[C@H]1COCCN1c1nc(-c2cnc(N)nc2)nc2c1CCN(C(=O)c1cc(Cc3n[nH]c(=O)c4ccccc34)ccc1F)C2 [I-11, (S)-4-(3-(2-(2-aminopyrimidin-5-yl)-4-(3-methylmorpholinyl)-5,6,7,8-tetrahydropyrido [3,4-d]pyrimidin-7-formyl)-4-fluorobenzyl)phthalazin-1(2H)-one] |  |  |  |  |  |  |  |  |  |  | melting point: 214 to 216 °C
6 | 3.87 | 76 | 92.6 | 40 |  |  | 1580 | 1010 | 784 | 1130 | C[C@@H]1CN(c2nc(-c3cnc(N)nc3)nc3c2CCN(C(=O)c2cc(Cc4n[nH]c(=O)c5ccccc45)ccc2F)C3)C[C@H](C)O1 [I-12, 4-(3-(2-(2-aminopyrimidin-5-yl)-4-((2S,6R)-2,6-dimethylmorpholinyl)-5,6,7,8-tetrahydropyrido [3,4-d]pyrimidin-7-formyl)-4-fluorobenzyl) phthalazin-1(2H)-one] |  |  |  |  |  |  |  |  |  |  | melting point: 204 to 206 °C
